Patent publication US10588982B2, “Site-specific covalent chemical ligation to monoclonal and polyclonal immunoglobulin” (The Regents of the University of California, priority 2015, dated 2020)

Key:
trastuzumab = assay: Confirmation screen on TentaGel beads, crosslinked trastuzumab detected with anti-human IgG Cy3; settings: DNFB reacted with methylamine or methylpypridine prior to staining
Source text: Approximately 100,000 library beads were immobilized onto 30 mm polystyrene dishes by using a series of 90% DMF washes. Beads were then washed and swelled in PBS. Nonspecific binding was inhibited with blocking buffer (0.1% BSA, 0.1% Tween, and 0.05% sodium azide) for one hour in room temperature. […] Excess antibody was removed, and beads were gently washed with PBS. To facilitate crosslinking of DNDFB to the antibody of the peptide library, we raised the pH to 8.5 for one hour. After crosslinking, beads were washed sequentially with PBS, 1.00 mM pH 3 glycine, and then pH 8 TBS. Anti-human IgG-alkaline phosphatase conjugate was then added at 1:1000 dilution. After washing, beads were then developed using BCIP (5-bromo-4-chloro-3′-indolyphosphate p-toluidine salt) solution. (NBT (nitro-blue tetrazolium chloride) was not used due to high background staining with TentaGel library beads.) Using a dissecting microscope, plates were imaged and positive beads were isolated. The isolated beads were then treated with 8M guanidine/HCl to remove all non-covalently linked proteins. The beads were further washed with PBS and water. […]
In the confirmation studies, hits were synthesized on TentaGel. Staining steps were the same except 1:30 anti-human IgG conjugated to Cy3 was used to allow for fluorescence quantification. […] Bead intensity was measured and quantified using Image J. […]

SKOV3 = assay: In vitro T cell killing assay by flow cytometry; type: cell-based; settings: with activated T cells
Experimental: FIG. 30. Depicts results of an in vitro T cell killing assay monitored and quantified by flow cytometry.
In vitro cytotoxicity assays were performed to analyze the effect of the NMDS-LYX30 bi-functional immunoconjugate on T cell targeting of an α3β1 integrin expressing target cell. Target cells (SKOV3) were labeled with GFP. The labeled target cells were plated in 6-well plates at 30000 cells per well and allowed to adhere overnight at 37° C. in a humidified atmosphere of 5% CO2. PBMCs were isolated from healthy volunteer donor and activated with anti-CD3, anti-CD28 (1 ug/ml) for 72 hours prior to co-incubation with target cells. The activated PBMCs were co-cultured with target cells at E:T=10:1 ratio for 12 hours at 37° C. in a humidified atmosphere of 5% CO2 with or without 100 ng/ml immunoconjugates contained medium. At the end of the incubation, the cells were lifted by trypsin and collected from the plate. The cells were resuspended in equal volume of PBS containing 2% FBS, 1 mmol/L EDTA, Propidium iodine (PI) and Annexin V-APC for 15 minutes. The fluorescent intensity of GFP, PI and APC were recorded by a FACs machine. 10000 events of target cells were recorded by gating GFP positive channel. The percentage of live/dead cells was calculated by the different cell population containing different amount of annexin V or PI. […] The results are depicted in FIG. 30.

For “indole-butyrate-Lys(DNFB)-Asp-Ser linker [DS affinity element]”, the “decrease in fluorescent intensity” value (trastuzumab) was 50%.
With “nivolumab: anti-PD-1 checkpoint inhibitor antibody” the target cell killing (SKOV3) was “increased target cell killing”.
